What is called EC30 is the concentration needed for an effect of 30%.

The first assay deals with T1, F508del (Homo sapiens, UniProt P13569, DEL508-508).
T1 construct: expressed in transfected cells
T1 sequence (P13569 with tags, fused parts or gaps DEL508-508): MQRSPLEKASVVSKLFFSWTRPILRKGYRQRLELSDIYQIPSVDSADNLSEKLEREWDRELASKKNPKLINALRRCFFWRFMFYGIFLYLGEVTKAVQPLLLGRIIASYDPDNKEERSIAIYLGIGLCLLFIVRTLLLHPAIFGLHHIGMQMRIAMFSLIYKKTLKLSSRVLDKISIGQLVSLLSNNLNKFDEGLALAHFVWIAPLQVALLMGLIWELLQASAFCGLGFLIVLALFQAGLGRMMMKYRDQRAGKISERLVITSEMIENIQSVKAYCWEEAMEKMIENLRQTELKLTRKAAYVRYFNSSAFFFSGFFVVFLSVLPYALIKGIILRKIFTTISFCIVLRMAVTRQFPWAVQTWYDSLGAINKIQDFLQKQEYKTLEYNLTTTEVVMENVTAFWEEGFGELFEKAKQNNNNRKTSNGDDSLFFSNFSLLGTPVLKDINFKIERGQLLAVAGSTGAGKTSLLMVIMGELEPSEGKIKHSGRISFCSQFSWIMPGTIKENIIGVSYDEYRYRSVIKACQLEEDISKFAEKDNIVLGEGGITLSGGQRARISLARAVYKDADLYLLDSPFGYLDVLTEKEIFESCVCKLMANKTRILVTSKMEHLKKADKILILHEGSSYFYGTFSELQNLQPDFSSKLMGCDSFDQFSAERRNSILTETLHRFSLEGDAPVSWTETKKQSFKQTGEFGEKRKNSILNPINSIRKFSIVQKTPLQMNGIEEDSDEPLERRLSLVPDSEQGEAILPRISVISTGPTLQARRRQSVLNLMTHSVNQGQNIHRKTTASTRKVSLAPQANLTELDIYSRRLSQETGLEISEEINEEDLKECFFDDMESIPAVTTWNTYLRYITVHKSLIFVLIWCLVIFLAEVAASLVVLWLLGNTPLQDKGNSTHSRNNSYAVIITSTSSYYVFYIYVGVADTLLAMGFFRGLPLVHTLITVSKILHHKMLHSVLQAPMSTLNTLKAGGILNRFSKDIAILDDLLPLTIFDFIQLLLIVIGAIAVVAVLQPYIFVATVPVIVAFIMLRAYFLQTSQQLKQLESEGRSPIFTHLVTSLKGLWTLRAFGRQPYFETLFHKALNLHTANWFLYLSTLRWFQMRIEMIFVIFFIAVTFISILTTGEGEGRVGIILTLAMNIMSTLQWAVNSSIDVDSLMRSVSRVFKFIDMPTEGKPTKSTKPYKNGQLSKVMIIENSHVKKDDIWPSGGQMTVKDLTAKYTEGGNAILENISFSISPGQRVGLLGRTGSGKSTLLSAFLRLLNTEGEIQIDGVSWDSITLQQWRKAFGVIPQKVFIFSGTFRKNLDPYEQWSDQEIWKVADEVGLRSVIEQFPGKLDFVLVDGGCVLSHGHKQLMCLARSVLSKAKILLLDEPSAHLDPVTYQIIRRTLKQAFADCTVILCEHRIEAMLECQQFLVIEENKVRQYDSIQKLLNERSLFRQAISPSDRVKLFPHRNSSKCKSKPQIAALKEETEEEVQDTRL
Briefly: Protocol 2: FRET membrane potential optical assay (VIPR), identification of correction compounds. The class given is cell-based. Conditions: F508del CFTR modulator activity; compounds of Table 1; read-out: EC30. An outline of the steps:
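NIH3T3 mouse fibroblasts stably expressing F508del were treated with test compound for 16 hrs at 37° C. in serum-free medium; 27° C. incubation served as positive control. F508del was activated with 10 μM forskolin plus 20 μM genistein in Cl^−-free medium, and Cl^− efflux-driven depolarization was read by DiSBAC2(3)/CC2-DMPE FRET.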
As to `CC1CN(c2ncccc2C(=O)NS(=O)(=O)c2cccc(Oc3ccc(Cl)c(Cl)c3)n2)C(C)(C)C1` (stereo not shown) [Compound 2061, N—[[6-(3,4-dichlorophenoxy)-2-pyridyl]sulfonyl]-2-(2,2,4-trimethylpyrrolidin-1-yl)pyridine-3-carboxamide], the EC30 was under 3 µM.

`CC1CN(c2ncccc2C(=O)NS(=O)(=O)c2cccc(Oc3ccc4nonc4c3)n2)C(C)(C)C1` (stereo not shown) [Compound 2727]: the EC30 is under 3 µM.

In the case of `CCOC(=O)c1ccc(OC)c(-c2cnc(N3CC(C)CC3(C)C)c(C(=O)NS(=O)(=O)c3cccc(N)n3)c2)c1` (stereo not shown) [Compound 2134, ethyl 3-[5-[(6-amino-2-pyridyl)sulfonylcarbamoyl]-6-(2,2,4-trimethylpyrrolidin-1-yl)-3-pyridyl]-4-methoxy-benzoate], the 30% effect concentration (EC30) is under 3 µM.

As for `CC(C)COc1cc(F)cc(-c2ccc(C(=O)NS(=O)(=O)c3cccc(N)n3)c(N3CC(C)CCC3C)n2)c1` (single isomer, unassigned) [Compound 2451, N-[(6-amino-2-pyridyl)sulfonyl]-2-(2,5-dimethyl-1-piperidyl)-6-(3-fluoro-5-isobutoxy-phenyl)pyridine-3-carboxamide], the EC30 is under 3 µM.

For `CC1CCC(Oc2cccc(S(=O)(=O)NC(=O)c3cccnc3N3CC(C)CC3(C)C)n2)CC1` (stereo not shown) [Compound 2336, N—[[6-(4-methylcyclohexoxy)-2-pyridyl]sulfonyl]-2-(2,2,4-trimethylpyrrolidin-1-yl)pyridine-3-carboxamide], the EC30 was under 3 µM.

Consider `CC(C)COc1cc(F)cc(-c2ccc(C(=O)NS(=O)(=O)N3CC[C@H](F)C3)c(N3C[C@@H](C)CC3(C)C)n2)c1` [Compound 2228, 6-(3-fluoro-5-isobutoxy-phenyl)-N-[(3S)-3-fluoropyrrolidin-1-yl]sulfonyl-2-[(4S)-2,2,4-trimethylpyrrolidin-1-yl]pyridine-3-carboxamide], for which the EC30 was under 3 µM.

With `C[C@@H]1CN(c2nc(-c3ccc(C(F)(F)F)cc3)ccc2C(=O)NS(=O)(=O)c2cccnc2N)C(C)(C)C1` [Compound 2048, N-[(2-amino-3-pyridyl)sulfonyl]-6-[4-(trifluoromethyl)phenyl]-2-[(4S)-2,2,4-trimethylpyrrolidin-1-yl]pyridine-3-carboxamide], the EC30 is under 3 µM.

As to `CC1CN(c2ncccc2C(=O)NS(=O)(=O)c2cccc(Nc3ccc4c(ccn4C)c3)n2)C(C)(C)C1` (stereo not shown) [Compound 2193, N—[[6-[(1-methylindol-5-yl)amino]-2-pyridyl]sulfonyl]-2-(2,2,4-trimethylpyrrolidin-1-yl)pyridine-3-carboxamide], the EC30 was under 3 µM.

Consider `CCC(CC)N1CCN(c2cccc(S(=O)(=O)NC(=O)c3cccnc3N3CC(C)CC3(C)C)n2)CC1` (stereo not shown) [Compound 2565, N—[[6-[4-(1-ethylpropyl)piperazin-1-yl]-2-pyridyl]sulfonyl]-2-(2,2,4-trimethylpyrrolidin-1-yl)pyridine-3-carboxamide], for which the EC30 is 3 to 10 µM.

For `Cc1cccc(-c2ccc(C(=O)NS(=O)(=O)c3ccc[nH]c3=O)c(N3C[C@@H](C)CC3(C)C)n2)c1` [Compound 2424, 6-(m-tolyl)-N-[(2-oxo-1H-pyridin-3-yl)sulfonyl]-2-[(4S)-2,2,4-trimethylpyrrolidin-1-yl]pyridine-3-carboxamide], the EC30 is under 3 µM.

In the case of `COc1ccc(OC)c(CNc2cccc(S(=O)(=O)NC(=O)c3cccnc3N3CC(C)CC3(C)C)n2)c1` (stereo not shown) [Compound 2722], the EC30 is under 3 µM.

As to `C[C@@H]1CN(c2nc(-n3ccc(-c4ccccc4)n3)ccc2C(=O)NS(=O)(=O)C2CC2)C(C)(C)C1` [Compound 2674, N-cyclopropylsulfonyl-6-(3-phenylpyrazol-1-yl)-2-[(4S)-2,2,4-trimethylpyrrolidin-1-yl]pyridine-3-carboxamide], the EC30 is under 3 µM.

As to `CC1CN(c2ncccc2C(=O)NS(=O)(=O)c2cccc(NCCOc3ccccc3)n2)C(C)(C)C1` (stereo not shown) [Compound 2206, N—[[6-(2-phenoxyethylamino)-2-pyridyl]sulfonyl]-2-(2,2,4-trimethylpyrrolidin-1-yl)pyridine-3-carboxamide], the EC30 is under 3 µM.

As for `CC1CN(c2ncccc2C(=O)NS(=O)(=O)c2cccc(Oc3cccc(C(F)(F)F)c3)n2)C(C)(C)C1` (stereo not shown) [Compound 2718], the EC30 is under 3 µM.

For `CC1CN(c2ncccc2C(=O)NS(=O)(=O)c2cccc(Oc3cc(Cl)ccc3F)n2)C(C)(C)C1` (stereo not shown) [Compound 2598, N—[[6-(5-chloro-2-fluoro-phenoxy)-2-pyridyl]sulfonyl]-2-(2,2,4-trimethylpyrrolidin-1-yl)pyridine-3-carboxamide], the EC30 was under 3 µM.

`CC1CN(c2ncccc2C(=O)NS(=O)(=O)c2cccc(Oc3ccccc3N3CCCCC3)n2)C(C)(C)C1` (stereo not shown) [Compound 2738]: the EC30 is under 3 µM.

Staying with this assay, now noted: Table 3; compounds of Table 1 as modulators of CFTR activity; protocol not stated.
On to `Cc1ccc(Oc2nc(C(C)(C)C)ccc2C(=O)NS(=O)(=O)c2ccc[nH]c2=O)c(C)c1` [Compound 55, 6-tert-butyl-2-(2,4-dimethylphenoxy)-N-[(2-oxo-1H-pyridin-3-yl)sulfonyl]pyridine-3-carboxamide], for which the EC30 result is “++ (“++” means between 3 uM and 10 uM)”.

On to `CC(C)COc1cc(F)cc(-c2ccc(C(=O)NS(=O)(=O)c3ccc[nH]c3=O)c(N3C[C@H](C)CC3(C)C)n2)c1` [Compound 605, 6-(3-fluoro-5-isobutoxy-phenyl)-N-[(2-oxo-1H-pyridin-3-yl)sulfonyl]-2-[(4R)-2,2,4-trimethylpyrrolidin-1-yl]pyridine-3-carboxamide], for which the EC30 entry was “+++ (“+++” means <3 uM)”.

As for `Cc1ccc(-c2nc(C(C)(C)C)ccc2C(=O)NS(=O)(=O)c2cccc(N)n2)cc1` [Compound 58, N-[(6-amino-2-pyridyl)sulfonyl]-6-tert-butyl-2-(p-tolyl)pyridine-3-carboxamide], the EC30 result was “++ (“++” means between 3 uM and 10 uM)”.

`CCOc1cc(F)cc(-c2ccc(C(=O)NS(=O)(=O)c3cccc(N)n3)c(N3[C@H](C)CC[C@@H]3C)n2)c1` [Compound 551, N-[(6-amino-2-pyridyl)sulfonyl]-2-[(2R,5S)-2,5-dimethylpyrrolidin-1-yl]-6-(3-ethoxy-5-fluoro-phenyl)pyridine-3-carboxamide]: the EC30 entry is listed as “+++ (“+++” means <3 uM)”.

For `Cc1ccc(-c2nc(C(C)(C)C)ccc2C(=O)NS(=O)(=O)c2ccc(N)cc2)cc1` [Compound 297, N-(4-aminophenyl)sulfonyl-6-tert-butyl-2-(p-tolyl)pyridine-3-carboxamide], the EC30 entry was “++ (“++” means between 3 uM and 10 uM)”.

On to `Cc1cccc(C)c1Cn1nc(CCC(C)(C)C)cc1C(=O)NS(=O)(=O)c1cccc(N)c1` [Compound 323, N-(3-aminophenyl)sulfonyl-5-(3,3-dimethylbutyl)-2-[(2,6-dimethylphenyl)methyl]pyrazole-3-carboxamide], for which the EC30 result was “+++ (“+++” means <3 uM)”.

`CCOc1ccc(-c2ccc(C(=O)NS(=O)(=O)c3nccnc3N)c(N3CCC(C)CC3)n2)cc1` [Compound 507, N-(3-aminopyrazin-2-yl)sulfonyl-6-(4-ethoxyphenyl)-2-(4-methyl-1-piperidyl)pyridine-3-carboxamide]: the EC30 result is given as “+++ (“+++” means <3 uM)”.

In the case of `COc1cccc2c1cc(C(=O)NS(=O)(=O)c1ccccc1)n2Cc1c(C)cccc1C` [Compound 290, N-(benzenesulfonyl)-1-[(2,6-dimethylphenyl)methyl]-4-methoxy-indole-2-carboxamide], the EC30 entry was “+++ (“+++” means <3 uM)”.

For the compound `Cc1cccc(C)c1Cn1c(C(=O)NS(=O)(=O)c2ccccc2)cc2ccccc21` [Compound 2, N-(benzenesulfonyl)-1-[(2,6-dimethylphenyl)methyl]indole-2-carboxamide], the EC30 result was “+++ (“+++” means <3 uM)”.

With `CC(C)COc1cc(F)cc(-c2ccc(C(=O)NS(=O)(=O)c3cccc(N)n3)c(N3CCC4CCCC43)n2)c1` (stereo not shown) [Compound 383, 2-(3,3a,4,5,6,6a-hexahydro-2H-cyclopenta[b]pyrrol-1-yl)-N-[(6-amino-2-pyridyl)sulfonyl]-6-(3-fluoro-5-isobutoxy-phenyl)pyridine-3-carboxamide], the EC30 entry was “+++ (“+++” means <3 uM)”.

With `Cc1cc(C)c(Cn2c(C(=O)NS(=O)(=O)c3ccncc3)cc3ccc(Cl)cc32)c(C)c1` [Compound 24, 6-chloro-N-(4-pyridylsulfonyl)-1-[(2,4,6-trimethylphenyl)methyl]indole-2-carboxamide], the EC30 entry is “++ (“++” means between 3 uM and 10 uM)”.

Regarding `Cc1ccc(Oc2nc3c(cc2C(=O)NS(=O)(=O)c2ccc[nH]c2=O)CCCC3(C)C)c(C)c1` [Compound 634, 2-(2,4-dimethylphenoxy)-8,8-dimethyl-N-[(2-oxo-1H-pyridin-3-yl)sulfonyl]-6,7-dihydro-5H-quinoline-3-carboxamide], the EC30 result is “+++ (“+++” means <3 uM)”.

Consider `Cc1cc(C)c(Oc2nc(-c3c(C)cccc3C)ccc2C(=O)NS(=O)(=O)c2cccc(N)n2)c(C)c1` [Compound 97, N-[(6-amino-2-pyridyl)sulfonyl]-6-(2,6-dimethylphenyl)-2-(2,4,6-trimethylphenoxy)pyridine-3-carboxamide], for which the EC30 result is “+++ (“+++” means <3 uM)”.

For the compound `CC(C)COc1cc(F)cc(-c2ccc(C(=O)NS(=O)(=O)c3cccc(N)n3)c(N3CCC(Cc4ccccc4)C3)n2)c1` (stereo not shown) [Compound 473, N-[(6-amino-2-pyridyl)sulfonyl]-2-(3-benzylpyrrolidin-1-yl)-6-(3-fluoro-5-isobutoxy-phenyl)pyridine-3-carboxamide], the EC30 entry is on record as “+++ (“+++” means <3 uM)”.

For `Cc1cc(C)c(CN2Cc3ccccc3[C@H]2C(=O)NS(=O)(=O)c2cccc(N)c2)c(C)c1` [Compound 126, (1S)—N-(3-aminophenyl)sulfonyl-2-[(2,4,6-trimethylphenyl)methyl]isoindoline-1-carboxamide], the EC30 entry was “+++ (“+++” means <3 uM)”.

The values above are taken from US10758534B2 (Vertex Pharmaceuticals Incorporated, priority 2014, dated 2020).
